Read-outs that look alike come from different tables or passages of the source.
Legend:
[1] = tested on: TRPA1V1; assay: Intracellular calcium (Fluo-4, FLIPR) activation of TRPA1V1 cells (co-expressing TRPA1 and TRPV1) by GRAS compounds; type: cell-based, human;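 note: HEK293 cells co-expressing TRPA1 and TRPV1, fluorescence read at 488/514 nm after baseline subtraction, recorded every 2 s over 10 min, ionomycin 10 µM and buffer as controls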
[2] = biological target: T1, human TRPA1 (Homo sapiens, UniProt O75762, K186N/R3C/R58T); assay: Intracellular calcium (Fluo-4, FLIPR) activation of TRPA1 cells by GRAS compounds; type: cell-based; details: for activation at 1000 µM / activation at 100 µM: read-out: A1 activation, % of agonist value;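 for all read-outs here: TRPA1-expressing cells, fluorescence read on a FLIPR Tetra (ex 488 nm, em 514 nm) every 2 s for 10 min after compound addition, baseline subtracted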
T1 construct: expressed in transfected cells; pcDNA3 control cells
T1 sequence (O75762 whole entry R3C/R58T/K186N): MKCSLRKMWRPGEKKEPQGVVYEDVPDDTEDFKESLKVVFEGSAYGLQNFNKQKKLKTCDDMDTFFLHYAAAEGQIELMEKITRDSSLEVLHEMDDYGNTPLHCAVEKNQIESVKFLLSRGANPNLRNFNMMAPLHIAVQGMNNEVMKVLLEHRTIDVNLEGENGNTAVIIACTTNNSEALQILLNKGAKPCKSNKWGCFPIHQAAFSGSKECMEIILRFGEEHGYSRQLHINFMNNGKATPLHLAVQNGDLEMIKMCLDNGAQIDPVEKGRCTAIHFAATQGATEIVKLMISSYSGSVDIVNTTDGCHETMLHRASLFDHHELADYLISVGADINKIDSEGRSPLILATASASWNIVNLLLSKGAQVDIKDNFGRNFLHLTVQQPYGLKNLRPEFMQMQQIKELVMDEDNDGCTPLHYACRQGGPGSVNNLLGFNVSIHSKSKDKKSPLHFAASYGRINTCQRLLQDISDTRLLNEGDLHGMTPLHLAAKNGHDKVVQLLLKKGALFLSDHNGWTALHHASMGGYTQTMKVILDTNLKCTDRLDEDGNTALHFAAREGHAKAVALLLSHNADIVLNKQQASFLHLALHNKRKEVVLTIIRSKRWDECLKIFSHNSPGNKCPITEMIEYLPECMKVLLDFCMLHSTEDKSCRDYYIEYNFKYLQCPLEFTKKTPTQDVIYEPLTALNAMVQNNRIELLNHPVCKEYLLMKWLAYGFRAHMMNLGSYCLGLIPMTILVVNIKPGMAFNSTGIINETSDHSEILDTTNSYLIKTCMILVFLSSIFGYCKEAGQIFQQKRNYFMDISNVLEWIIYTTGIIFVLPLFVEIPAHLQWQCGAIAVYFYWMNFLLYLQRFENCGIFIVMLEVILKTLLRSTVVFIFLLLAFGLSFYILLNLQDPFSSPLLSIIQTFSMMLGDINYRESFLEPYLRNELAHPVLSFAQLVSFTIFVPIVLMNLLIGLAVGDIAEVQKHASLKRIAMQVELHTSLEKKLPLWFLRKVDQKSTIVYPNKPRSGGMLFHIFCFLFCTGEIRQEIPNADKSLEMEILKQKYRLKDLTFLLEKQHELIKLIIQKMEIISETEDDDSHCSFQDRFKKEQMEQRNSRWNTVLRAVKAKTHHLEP

[3] = Table 1(d), 1 mM, relative to AITC 30 μM
[4] = Table 1(c), 1 mM, relative to AITC 30 μM
[5] = Table 1(c), 100 μM (*), relative to AITC 30 μM
[6] = Table 1(e), 1 mM, relative to AITC 30 μM

Compound: CCC(=O)C=CC1C(C)=CCCC1(C)C (stereo not shown)
- A1V1 activation, % of agonist value [1, 3]: 69.7%
- A1 activation, % of agonist value [2, 3]: 97.3%

Compound: 2-mercaptopropanoate
- A1V1 activation, % of agonist value [1, 3]: 54.3%
- A1 activation, % of agonist value [2, 3]: 101.5%

Compound: 3-mercaptopropanoate
- A1V1 activation, % of agonist value [1, 4]: 41.8%
- A1 activation, % of agonist value [2, 4]: 42.7%

Compound: CC(=O)/C=C/C1C(C)=CCCC1(C)C (racemic) [(+/−)-Alpha-Ionone]
- A1V1 activation, % of agonist value [1, 4]: 64.21%
- A1 activation, % of agonist value [2, 4]: 64.62%

Compound: CC(C)[C@@H]1CC[C@@H](C)C[C@H]1O (racemic) [DL-Menthol]
- A1V1 activation, % of agonist value [1, 4]: 43.05%
- A1 activation, % of agonist value [2, 4]: 54.02%

Compound: C=C(C)C1CC=C(C)C(OC(C)=O)C1 (single isomer, unassigned; (-)) [(−)-Carvyl acetate]
- A1V1 activation, % of agonist value [1, 4]: 37%
- A1 activation, % of agonist value [2, 4]: 31.2%

Compound: Cc1c(C(=O)O)c(O)cc2c1C(=O)c1c(O)c(C3O[C@H](CO)[C@@H](O)[C@H](O)[C@H]3O)c(O)c(O)c1C2=O (stereo in doubt) [Carmine]
- A1V1 activation, % of agonist value [1, 4]: 61.54%
- activation at 1000 µM [2, 4]: 66.2%

Compound: CC(S)CS (stereo not shown) [1,2-Propanedithiol]
- A1V1 activation, % of agonist value [1, 5]: 65.4%
- A1V1 activation, % of agonist value [1, 4]: 73.3%
- A1 activation, % of agonist value [2, 5]: 65.8%
- A1 activation, % of agonist value [2, 4]: 66%

Compound: SCCCCCCS [1,6-Hexanedithiol]
- A1V1 activation, % of agonist value [1, 4]: 54%
- activation at 1000 µM [2, 4]: 68.6%

Compound: O=CC1=CCCCC1 [1-Cyclohexene-1-carboxaldehyde]
- A1V1 activation, % of agonist value [1, 4]: 48.37%
- activation at 1000 µM [2, 4]: 45.9%

Compound: C/C=C(\C)C(=O)OC(CC)CCCCC (stereo not shown) [1-Ethylhexyl Tiglate]
- A1V1 activation, % of agonist value [1, 3]: 31.87%
- activation at 1000 µM [2, 3]: 50.6%

Compound: Cn1cccc1C=O [1-Methylpyrrole-2-carboxaldehyde]
- A1V1 activation, % of agonist value [1, 4]: 87.70%
- activation at 1000 µM [2, 4]: 81.1%

Compound: CCCCCC=CC=CCO [2,4-Decadienol]
- A1V1 activation, % of agonist value [1, 4]: 52.2%
- activation at 1000 µM [2, 4]: 48.6%

Compound: Cc1ccc(C=O)c(C)c1 [2,4-Dimethylbenzaldehyde]
- A1V1 activation, % of agonist value [1, 4]: 102.8%
- activation at 1000 µM [2, 4]: 107%

Compound: CC=CC=CCO [2,4-Hexadienol]
- A1V1 activation, % of agonist value [1, 4]: 78.68%
- activation at 1000 µM [2, 4]: 78%

Compound: CC=CC=CCOC(=O)CC [2,4-Hexadienyl propionate]
- A1V1 activation, % of agonist value [1, 4]: 91.20%
- activation at 1000 µM [2, 4]: 93.2%

Compound: CCCC=CC=CC=O [2,4-Octadienal]
- A1V1 activation, % of agonist value [1, 4]: 82.7%
- activation at 1000 µM [2, 4]: 80.9%

Compound: CC1(O)CSC(C)(O)CS1 (stereo not shown) [2,5-dimethyl-1,4-dithilane-2,5-diol]
- A1V1 activation, % of agonist value [1, 5]: 87.2%
- A1 activation, % of agonist value [2, 5]: 77.5%

Compound: Cc1cccc(C)c1S [2,6-Dimethylthiophenol]
- A1V1 activation, % of agonist value [1, 4]: 85.5%
- activation at 1000 µM [2, 4]: 84.4%

Compound: CC/C=C\CC/C=C/C(OCC)OCC [2,6-Nonadiene, 1,1-diethoxy-, (E,Z)-]
- A1V1 activation, % of agonist value [1, 4]: 74.31%
- activation at 1000 µM [2, 4]: 89.3%

Compound: CC(=O)c1ccc2ccccc2c1 [2-Acetylnaphthalene]
- A1V1 activation, % of agonist value [1, 4]: 69.41%
- activation at 1000 µM [2, 4]: 60.3%

Compound: O=C(CCl)c1ccccc1 [2-Chloroacetophenone]
- A1V1 activation, % of agonist value [1, 5]: 88.8%
- A1V1 activation, % of agonist value [1, 4]: 103%
- activation at 100 µM [2]: 93.6%
- activation at 1000 µM [2]: 91.4%

Compound: CCCCCCCCCC=CC=O [2-Dodecenal]
- A1V1 activation, % of agonist value [1, 6]: 82.8%
- activation at 1000 µM [2, 6]: 65.5%

Compound: CCC(CC)C(=O)O [2-Ethylbutyric acid]
- A1V1 activation, % of agonist value [1, 3]: 34.87%
- activation at 1000 µM [2, 3]: 67.7%

Compound: Cc1ccc(CO)o1 [2-Furanmethanol, 5-methyl-]
- A1V1 activation, % of agonist value [1, 4]: 76.02%
- activation at 1000 µM [2, 4]: 77.3%

Compound: O=C(OCCc1ccccc1)c1ccco1 [2-Furoic acid, phenethyl ester]
- A1V1 activation, % of agonist value [1, 4]: 145%
- activation at 1000 µM [2, 4]: 155%

Compound: CC(=O)Cc1ccco1 [2-Furylacetone]
- A1V1 activation, % of agonist value [1, 4]: 59.5%
- activation at 1000 µM [2, 4]: 60.8%

Compound: CCCCCC(=O)c1ccco1 [2-Hexanoylfuran]
- A1V1 activation, % of agonist value [1, 4]: 109%
- activation at 1000 µM [2, 4]: 118%

Compound: CC=CC(=O)CC [2-Hexen-4-one]
- A1V1 activation, % of agonist value [1, 3]: 24.5%
- activation at 1000 µM [2, 3]: 53%

Compound: CCCCCCCCCC(C)C=O (stereo not shown) [2-Methylundecanal]
- A1V1 activation, % of agonist value [1, 5]: 57.3%
- activation at 100 µM [2, 5]: 54.9%

Compound: CCCCCC=CC(=O)O [2-Octenoic acid]
- A1V1 activation, % of agonist value [1, 4]: 61.77%
- activation at 1000 µM [2, 4]: 55.9%

Compound: CC=C(C=O)c1ccccc1 [2-Phenyl-2-butenal]
- A1V1 activation, % of agonist value [1]: 82.8%
- activation at 1000 µM [2]: 65.8%

Compound: CC(C=O)c1ccccc1 (stereo not shown) [2-Phenylpropionaldehyde]
- A1V1 activation, % of agonist value [1, 4]: 106.9%
- activation at 1000 µM [2, 4]: 105%

Reference: US9427415B2, “Methods and compositions for modifying sensorial perception” (The Procter & Gamble Company, priority 2014, dated 2016)
